From ChEMBL document CHEMBL1127276, “Chemical and plasma hydrolyses of a diphenyl -aminomethyl phosphonate prodrug inhibitor of neutral endopeptidase 24.11” (Bioorg Med Chem Lett, 1994) come the findings set out here.

Data set [1] is described as follows: In vitro half life at 1.5 -5.6ug/mL, 37 degree C in rat plasma. Type of data set: ADME.
Data set [2] is described as follows: In vitro half life at 1.5 -5.6ug/mL, 37 degree C in human plasma. Type of data set: ADME, cell-free.
The nature of data set [3]: Half life at a pH 12.01 in […] medium. Type of data set: ADME.
Data set [4] in a line: Half life at a pH 8.5 in Na2HPO4/NaH2PO4 medium. Type of data set: ADME.
The nature of data set [5]: Half life at a pH 13.65 in KOH medium. The format is ADME.
The nature of data set [6]: Half life at a pH 8.78 in KHCO3 medium. The format is ADME.
A short description of data set [7]: In vitro half life at 1.5 -5.6ug/mL, 37 degree C in dog plasma. The format is ADME, Canis lupus familiaris.
A short description of data set [8]: In vitro half life at 1.5 -5.6ug/mL, 37 degree C in monkey plasma. Type of data set: ADME, cell-free. The following applies: cercopithecidae.
The nature of data set [9]: Half life at a pH 8.44 in NaHCO3 medium. Type of data set: ADME.
Data set [10] in a line: Ionization constant in basic (NH2+) medium. The format is physicochemical. The note with it: read-out: pKa4.
Data set [11] in a line: Ionization constant in slightly acidic(POH) medium. Type of data set: physicochemical. The note with it: read-out: pKa3.
Data set [12] is described as follows: Ionization constant in acidic (COOH)medium. The format is physicochemical. The note with it: read-out: pKa2.

Molecules are shown by their SMILES.

A word on the half-life: it is the time needed for the level to fall by half in the phase considered. As to `O=C(O)CCNC(=O)[C@H](Cc1ccc(-c2ccccc2)cc1)NCP(=O)(Oc1ccccc1)Oc1ccccc1`, the half-life in data set [1] is 2.5 h; in data set [2] it was 1.4 h; in data set [3], < 0.167 h; in [4], > 96 h; in data set [5], < 5 min; in data set [6] it was 8.19 h. For the same compound, the half-life was 13 h in [7], 4.7 h in data set [8] and 8.68 h in data set [9].
Regarding `O=C(O)CCNC(=O)[C@H](Cc1ccc(-c2ccccc2)cc1)NCP(=O)(O)O`, the pKa in [10] is 10; in [11], 7.8; in [12] it was 5.5.
For `O=C(O)CCNC(=O)[C@H](Cc1ccc(-c2ccccc2)cc1)NCP(=O)(O)Oc1ccccc1`, the half-life in data set [1] was 9.4 h; in data set [2], 4.2 h; in data set [3], > 0.1 h; in data set [4], > 6 h; in [5], > 6 min; in data set [6], 0.51 h. Besides, the half-life in data set [7] was 38 h; in data set [8] it was > 7.8 h; in data set [9], 0.55 h. In addition, the values for the pKa in data set [10] and in data set [12] were 10 and 5.8, respectively.
